# Measurements: patent US8932597B2 (priority 2008, dated 2015)
# Tested on: HuM2e antibody 23K12
# Assay type: binding, human
row,Substance,Signal (peptides that bind to 23K21 and 8I10)
1,315 (MCLCTCVGCSLLTEC; epitope peptide) [compound 315],1823
2,515 (SLLTEWETPIRNEWGCRCNDSSD; epitope peptide) [compound 515],1025
3,526 (MSLLTECGMSCLCEC; epitope peptide) [compound 526],992
4,481 (CSLLTECGMSLCTEV; epitope peptide) [compound 481],1187
5,490 (SVLTEVETPIRNEWGCRCNDSSD; epitope peptide) [compound 490],1109
6,578 (SLLTERETPIRNEWGCRCNDSSD; epitope peptide) [compound 578],859
7,382 (CSLLTECGSLLTEV; epitope peptide) [compound 382],1393
8,149 (CTEVETPIRNEWGSRSCLTEVETPIRNEWGSRC; epitope peptide) [compound 149],1348
9,548 (CSLLTECGSLCTEV; epitope peptide) [compound 548],917
10,472 (SLLTECGSLCTEV; epitope peptide) [compound 472],1218
11,333 (SLLTCVGSLLTEC; epitope peptide) [compound 333],1683
12,369 (SLLTEAETPIRNEWGCRCNDSSD; epitope peptide) [compound 369],1481
13,307 (SLCTEVGCLCTCV; epitope peptide) [compound 307],1907
14,479 (SLLTEDETPIRNEWGCRCNDSSD; epitope peptide) [compound 479],1196
15,325 (SLLTECGSLLTEV; epitope peptide) [compound 325],1770
16,319 (SLLTECGSLLTCV; epitope peptide) [compound 319],1800

row,Substance,Signal (peptides that bind to 23K21 and 8I10)
1,331 (MSLLTECGMSLLTCV; epitope peptide) [compound 331],1690
2,486 (SLFTEVETPIRNEWGCRCNDSSD; epitope peptide) [compound 486],1156
3,604 (SLCTEVGSCLTEV; epitope peptide) [compound 604],824
4,531 (MSLCTEVGMSLLTEC; epitope peptide) [compound 531],970
5,530 (SLLTESETPIRNEWGCRCNDSSD; epitope peptide) [compound 530],974
6,502 (CSCLCEVGSLLTEC; epitope peptide) [compound 502],1064
7,483 (CSLLTECGCSLLTEC; epitope peptide) [compound 483],1177
8,601 (SLLTECGSCLTEV; epitope peptide) [compound 601],830
9,558 (CSLLTECGMSCLCEC; epitope peptide) [compound 558],897
10,282 (CSCLCEVGMSCLCEC; epitope peptide) [compound 282],2705
11,462 (SLLTECGCLLTEV; epitope peptide) [compound 462],1259
12,298 (SLCTEVGSCLCEC; epitope peptide) [compound 298],1967
13,567 (SLLTECGCSCLCEV; epitope peptide) [compound 567],879
14,550 (SLLTENETPIRNEWGCRCNDSSD; epitope peptide) [compound 550],914
15,507 (SLCTEVETPIRNEWGCRCNDSSD; epitope peptide) [compound 507],1050
16,344 (SMLTEVETPIRNEWGCRCNDSSD; epitope peptide) [compound 344],1622
